Data set [1] can be described thus: pH of media after dissolving the composition in water. Particulars: magnetic stirrer for 3 minutes. Format: physicochemical.
The conditions of data set [2]: cited from earlier work.

As to “4-[3,5-bis(2-hydroxyphenyl)-[1,2,4]triazol-1-yl]benzoic acid [deferasirox]”, the pH of media in data set [1] (composition with 500 mg deferasirox and 40 mg sodium carbonate) is 8.13; in data set [1] (composition with 500 mg deferasirox and 60 mg sodium carbonate) it was 8.33; in data set [1] (composition with 500 mg deferasirox and 80 mg sodium carbonate) it was 8.44; in data set [1] (composition with 500 mg deferasirox and 100 mg sodium carbonate) it was 8.65; in data set [1] (composition with 500 mg deferasirox and 120 mg sodium carbonate), 8.77; in data set [1] (composition with 500 mg deferasirox and 140 mg sodium carbonate), 8.84. In data set [1] (composition with 500 mg deferasirox and 160 mg sodium carbonate), this substance came in with a pH of media of 8.91. For the same substance, in data set [2], the permeability result was “good permeability”.

Source of the values: patent EP2987482A1 (Santa Farma Ilaç Sanayi A.S., priority 2014, dated 2016).
